# Experimental data from patent publication US20230219986A1, “NOVEL AMINOPYRIMIDINE EGFR INHIBITOR” (QILU PHARMACEUTICAL CO., LTD., priority 2020, published 2023).
# Like-named read-outs stand apart in the source and are kept apart here.
# What was measured:
# [1] = biological target: T1, L858R/T790M/C797S triple mutant EGFR (Homo sapiens, UniProt P00533, C797S/L858R/T790M); assay: Enzymology experiment in vitro (HTRF/FRET kinase activity), L858R/T790M/C797S triple mutant EGFR; assay type: biochemical; details: HTRF KinEASE-TK
# T1 construct: purchased Signalchem
# T1 sequence (P00533 25-1210 T790M/C797S/L858R): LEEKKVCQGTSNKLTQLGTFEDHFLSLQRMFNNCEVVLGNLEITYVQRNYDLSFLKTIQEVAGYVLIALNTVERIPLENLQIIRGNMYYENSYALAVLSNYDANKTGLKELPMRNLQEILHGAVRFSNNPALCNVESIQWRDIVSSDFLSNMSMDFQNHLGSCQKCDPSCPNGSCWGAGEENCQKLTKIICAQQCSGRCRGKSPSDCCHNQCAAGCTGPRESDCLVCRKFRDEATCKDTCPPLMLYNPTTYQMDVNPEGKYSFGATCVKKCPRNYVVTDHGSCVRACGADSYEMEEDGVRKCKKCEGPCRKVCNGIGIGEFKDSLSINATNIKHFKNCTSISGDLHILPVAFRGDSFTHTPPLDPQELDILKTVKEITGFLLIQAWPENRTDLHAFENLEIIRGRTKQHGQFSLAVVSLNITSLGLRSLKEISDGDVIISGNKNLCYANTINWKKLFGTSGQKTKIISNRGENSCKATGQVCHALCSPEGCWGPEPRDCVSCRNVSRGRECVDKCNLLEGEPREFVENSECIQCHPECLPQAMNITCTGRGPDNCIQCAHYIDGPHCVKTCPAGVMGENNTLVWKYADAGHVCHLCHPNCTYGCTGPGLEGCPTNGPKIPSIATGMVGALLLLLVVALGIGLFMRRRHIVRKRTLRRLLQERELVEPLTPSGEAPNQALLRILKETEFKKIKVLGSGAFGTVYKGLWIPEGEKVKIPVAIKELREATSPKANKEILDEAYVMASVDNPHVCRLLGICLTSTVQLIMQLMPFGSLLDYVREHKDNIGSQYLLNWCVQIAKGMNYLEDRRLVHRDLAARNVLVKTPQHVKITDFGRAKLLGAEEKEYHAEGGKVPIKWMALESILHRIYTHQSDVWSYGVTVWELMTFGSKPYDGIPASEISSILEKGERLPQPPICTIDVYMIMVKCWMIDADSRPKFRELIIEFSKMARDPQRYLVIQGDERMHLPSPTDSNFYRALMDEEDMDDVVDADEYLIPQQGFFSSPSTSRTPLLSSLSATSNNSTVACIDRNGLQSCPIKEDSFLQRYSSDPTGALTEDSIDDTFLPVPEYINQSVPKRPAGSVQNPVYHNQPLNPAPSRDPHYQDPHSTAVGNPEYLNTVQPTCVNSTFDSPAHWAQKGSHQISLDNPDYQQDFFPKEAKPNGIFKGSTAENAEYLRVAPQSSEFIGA
# Summary of the method: (§1)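 HTRF KinEASE-TK format: EGFR enzyme preincubated with compound 10 min at room temperature, then peptide substrate plus ATP added for 40 min. Detection with EDTA, XL665-streptavidin and Eu³⁺-labeled antibody for 1 h.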
# wild-type EGFR = biological target: T2, wild-type EGFR (Homo sapiens, UniProt P00533); assay: Enzymology experiment in vitro (HTRF/FRET kinase activity), wild-type EGFR; assay type: biochemical; details: HTRF KinEASE-TK
# T2 construct: purchased Signalchem
# T2 sequence (P00533 25-1210): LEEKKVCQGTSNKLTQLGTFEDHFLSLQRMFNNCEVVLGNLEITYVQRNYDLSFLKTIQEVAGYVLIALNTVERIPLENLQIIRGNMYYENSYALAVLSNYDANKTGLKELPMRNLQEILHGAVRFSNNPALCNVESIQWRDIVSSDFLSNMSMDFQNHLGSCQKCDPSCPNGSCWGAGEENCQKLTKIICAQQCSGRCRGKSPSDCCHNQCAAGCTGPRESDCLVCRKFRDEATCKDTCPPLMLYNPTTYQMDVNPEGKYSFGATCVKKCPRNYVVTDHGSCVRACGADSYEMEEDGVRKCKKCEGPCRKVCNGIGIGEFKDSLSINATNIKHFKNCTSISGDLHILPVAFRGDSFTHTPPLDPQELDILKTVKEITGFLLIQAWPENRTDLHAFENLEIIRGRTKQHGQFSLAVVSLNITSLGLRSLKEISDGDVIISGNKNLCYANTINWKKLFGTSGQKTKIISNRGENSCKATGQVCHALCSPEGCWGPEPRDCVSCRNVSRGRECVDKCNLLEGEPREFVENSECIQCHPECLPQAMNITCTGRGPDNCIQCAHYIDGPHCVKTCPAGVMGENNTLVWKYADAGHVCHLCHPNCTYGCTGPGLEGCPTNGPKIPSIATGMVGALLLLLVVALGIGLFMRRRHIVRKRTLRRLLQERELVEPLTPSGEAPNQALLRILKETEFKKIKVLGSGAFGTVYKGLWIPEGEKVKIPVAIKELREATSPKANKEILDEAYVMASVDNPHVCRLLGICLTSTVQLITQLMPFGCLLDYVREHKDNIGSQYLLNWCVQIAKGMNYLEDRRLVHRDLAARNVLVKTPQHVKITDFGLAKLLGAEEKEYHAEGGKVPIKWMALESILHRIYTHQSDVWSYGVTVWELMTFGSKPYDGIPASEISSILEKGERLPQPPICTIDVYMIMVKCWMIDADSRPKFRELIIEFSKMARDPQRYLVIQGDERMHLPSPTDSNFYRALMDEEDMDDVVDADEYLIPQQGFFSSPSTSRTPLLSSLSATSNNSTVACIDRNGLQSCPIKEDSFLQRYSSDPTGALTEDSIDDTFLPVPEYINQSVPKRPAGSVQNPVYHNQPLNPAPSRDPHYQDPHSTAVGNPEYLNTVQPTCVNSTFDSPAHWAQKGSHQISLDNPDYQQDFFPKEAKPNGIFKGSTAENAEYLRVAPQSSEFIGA
# Summary of the method: as §1
# [2] = system: EGFR wild-type cell line A431; assay: Cell proliferation inhibition experiment (CellTiter-Glo), A431; assay type: cell-based; details: Homo sapiens, A431 cells, Cell Titer-Glo, read-out: A431 EGFR WT IC50
# Summary of the method: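 A431 cells, 800 per well, were cultured 24 h and then exposed to serially diluted compound (0.1% DMSO final) for 72 h at 37° C., 5% CO2.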
# [3] = biological target: Ba/F3 De119/T790M/C797S EGFR triple mutant cell line (Homo sapiens, UniProt P00533, T790M/C797S, cells depend on it, form not given); assay: Cell proliferation inhibition experiment (CellTiter-Glo), Ba/F3 De119/T790M/C797S; assay type: cell-based; details: Ba/F3 Del19/T790M/C797S EGFR triple mutant cells, 72 hours, Cell Titer-Glo; read-out: Ba/F3 (Del19/T790M/C797S) IC50
# Sequence of Ba/F3 De119/T790M/C797S EGFR triple mutant cell line (P00533 with tags, fused parts or gaps DEL746-750/T790M/C797S, form open): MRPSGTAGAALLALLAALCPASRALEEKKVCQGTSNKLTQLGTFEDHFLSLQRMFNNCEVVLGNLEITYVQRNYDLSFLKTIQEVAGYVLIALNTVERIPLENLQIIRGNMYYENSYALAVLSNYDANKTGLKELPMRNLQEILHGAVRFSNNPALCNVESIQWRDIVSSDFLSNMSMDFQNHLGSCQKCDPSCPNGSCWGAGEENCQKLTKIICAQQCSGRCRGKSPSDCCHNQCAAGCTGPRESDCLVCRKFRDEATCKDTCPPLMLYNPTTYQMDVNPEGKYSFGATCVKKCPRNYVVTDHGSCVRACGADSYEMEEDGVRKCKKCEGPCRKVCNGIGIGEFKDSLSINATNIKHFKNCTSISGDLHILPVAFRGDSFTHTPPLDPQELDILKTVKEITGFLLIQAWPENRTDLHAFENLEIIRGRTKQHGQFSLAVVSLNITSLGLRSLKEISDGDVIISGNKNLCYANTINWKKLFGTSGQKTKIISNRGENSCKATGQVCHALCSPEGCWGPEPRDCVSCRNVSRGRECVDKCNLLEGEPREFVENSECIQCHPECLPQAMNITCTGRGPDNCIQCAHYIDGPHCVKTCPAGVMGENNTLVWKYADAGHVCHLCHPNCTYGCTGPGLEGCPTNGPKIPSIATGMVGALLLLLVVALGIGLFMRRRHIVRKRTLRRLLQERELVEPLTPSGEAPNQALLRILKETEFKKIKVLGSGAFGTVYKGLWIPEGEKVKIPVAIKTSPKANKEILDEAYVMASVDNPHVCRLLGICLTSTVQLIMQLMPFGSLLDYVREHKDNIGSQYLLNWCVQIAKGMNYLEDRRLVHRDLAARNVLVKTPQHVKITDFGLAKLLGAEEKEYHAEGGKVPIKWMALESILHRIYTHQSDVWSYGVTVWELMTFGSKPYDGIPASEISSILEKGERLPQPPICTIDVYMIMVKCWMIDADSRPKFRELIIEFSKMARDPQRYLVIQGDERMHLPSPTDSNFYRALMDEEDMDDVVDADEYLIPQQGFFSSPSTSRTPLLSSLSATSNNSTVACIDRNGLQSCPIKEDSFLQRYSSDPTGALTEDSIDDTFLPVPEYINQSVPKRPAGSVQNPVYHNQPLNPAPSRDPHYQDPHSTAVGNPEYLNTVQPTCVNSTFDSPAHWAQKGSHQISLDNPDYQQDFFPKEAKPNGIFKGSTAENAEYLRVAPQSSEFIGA
# [4] = biological target: Ba/F3 L858R/T790M/C797S EGFR triple mutant cell line (Homo sapiens, UniProt P00533, T790M/C797S/L858R, cells depend on it); assay: Cell proliferation inhibition experiment (CellTiter-Glo), Ba/F3 L858R/T790M/C797S; assay type: cell-based; details: 72 hours, Cell Titer-Glo, read-out: Ba/F3 (L858R/T790M/C797S) IC50
# Sequence of Ba/F3 L858R/T790M/C797S EGFR triple mutant cell line (P00533 whole entry T790M/C797S/L858R): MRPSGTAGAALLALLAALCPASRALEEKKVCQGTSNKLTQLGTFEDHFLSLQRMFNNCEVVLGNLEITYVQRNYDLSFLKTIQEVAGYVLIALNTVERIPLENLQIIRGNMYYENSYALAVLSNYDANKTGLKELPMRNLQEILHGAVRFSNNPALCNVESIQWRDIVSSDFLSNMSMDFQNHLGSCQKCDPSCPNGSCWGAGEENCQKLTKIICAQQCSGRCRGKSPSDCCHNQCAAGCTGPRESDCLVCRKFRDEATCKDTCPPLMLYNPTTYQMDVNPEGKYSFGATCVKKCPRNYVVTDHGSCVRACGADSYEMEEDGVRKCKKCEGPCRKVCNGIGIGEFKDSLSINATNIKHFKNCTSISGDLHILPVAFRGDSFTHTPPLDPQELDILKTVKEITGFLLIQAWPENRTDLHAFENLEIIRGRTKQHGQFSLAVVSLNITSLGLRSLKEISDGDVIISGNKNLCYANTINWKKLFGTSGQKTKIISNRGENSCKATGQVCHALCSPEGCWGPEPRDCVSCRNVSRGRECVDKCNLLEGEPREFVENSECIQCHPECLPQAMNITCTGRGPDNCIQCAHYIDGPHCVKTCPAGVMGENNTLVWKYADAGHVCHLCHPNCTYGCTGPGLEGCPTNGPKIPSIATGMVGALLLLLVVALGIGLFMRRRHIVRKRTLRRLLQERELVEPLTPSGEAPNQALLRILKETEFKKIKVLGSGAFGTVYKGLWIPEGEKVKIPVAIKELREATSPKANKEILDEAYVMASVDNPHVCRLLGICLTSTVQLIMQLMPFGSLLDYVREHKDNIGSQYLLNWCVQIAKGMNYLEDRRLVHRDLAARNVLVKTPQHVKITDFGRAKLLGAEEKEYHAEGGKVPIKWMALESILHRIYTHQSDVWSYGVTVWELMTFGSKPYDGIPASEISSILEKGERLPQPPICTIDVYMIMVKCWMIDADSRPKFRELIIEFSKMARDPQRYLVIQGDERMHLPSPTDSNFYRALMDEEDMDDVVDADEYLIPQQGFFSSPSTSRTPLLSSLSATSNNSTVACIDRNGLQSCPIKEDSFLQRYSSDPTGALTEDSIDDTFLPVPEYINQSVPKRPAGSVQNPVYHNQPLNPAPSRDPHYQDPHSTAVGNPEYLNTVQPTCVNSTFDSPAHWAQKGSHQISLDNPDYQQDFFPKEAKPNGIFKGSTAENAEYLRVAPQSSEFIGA
# [5] = read-out: EGFR (L858R/T790M/C797S) IC50
Compound,"IC50 [1, 5] [nM]",IC50 (wild-type EGFR; read-out: EGFR (WT) IC50) [nM],"IC50 ([2]; A-431, 72 h) [nM]",GI50 [3] [nM],GI50 [4] [nM],IC50 ([1]; EGFR (L858R/T790M/C797S) IC50(nM)) [nM],IC50 (wild-type EGFR; EGFR (WT) IC50(nM)) [nM],"IC50 ([2]; A-431, 72 hours) [nM]"
COc1ccc(-n2cccn2)cc1Nc1ncc(Br)c(Nc2ccc3nccnc3c2P(C)(C)=O)n1 [compound 20],9.21,179,1590,277,629,–,–,–
COc1c(Nc2ncc(Br)c(Nc3ccc4nccnc4c3P(C)(C)=O)n2)cc(-c2cnn(C)c2)c(N2CCOCC2)c1F [compound 23],1.92,40.3,195,8.67,30.3,–,–,–
CCOP(C)(=O)c1c(Nc2nc(Nc3cc(-c4cnn(C)c4)c(N4CCOCC4)c(F)c3OC)ncc2Br)ccc2nccnc12 (centres unmarked) [compound 24],–,–,–,45.2,139,11.4,346,567
COc1cc(N2CCC(OC)CC2)c(-c2cnn(C)c2)cc1Nc1ncc(Br)c(Nc2ccc3nccnc3c2P(C)(C)=O)n1 [compound 26],0.49,5.75,152,1.22,4.25,–,–,–
COc1ncc(-c2cnn(C)c2)cc1Nc1ncc(Br)c(Nc2ccc3nccnc3c2P(C)(C)=O)n1 [compound 30],1.01,55.7,284,12.1,62.6,–,–,–
CCOc1nc(N2CCOCC2)c(-c2cnn(C)c2)cc1Nc1ncc(Br)c(Nc2ccc3nccnc3c2P(C)(C)=O)n1 [compound 36],0.54,21.9,320,2.63,17.7,–,–,–
COc1nc(N2CCOCC2)c(-c2cn(C)nc2C)cc1Nc1ncc(Br)c(Nc2ccc3nccnc3c2P(C)(C)=O)n1 [compound 37],3.18,268,1140,32.6,65.6,–,–,–

# More lines, main results first:
"IC50 [1, 5] [nM]",IC50 (wild-type EGFR; read-out: EGFR (WT) IC50) [nM],"IC50 ([2]; A-431, 72 h) [nM]",GI50 [3] [nM],GI50 [4] [nM],Compound,IC50 ([1]; EGFR (L858R/T790M/C797S) IC50(nM)) [nM],IC50 (wild-type EGFR; EGFR (WT) IC50(nM)) [nM],"IC50 ([2]; A-431, 72 hours) [nM]"
< 0.05,12.2,177,4.62,15.6,COc1cc(N2CCC3(CC2)COC3)c(-c2cnn(C)c2)cc1Nc1ncc(Br)c(Nc2ccc3nccnc3c2P(C)(C)=O)n1 [compound 15],–,–,–
0.08,1.26,45.4,2.87,20.9,COc1cc(N2CCC(N3CCN(C)CC3)CC2)c(-c2cnn(C)c2)cc1Nc1ncc(Br)c(Nc2ccc3nccnc3c2P(C)(C)=O)n1 [compound 18],–,–,–
0.17,39.3,488,6.71,68.8,COc1cc(N2CCOCC2)c(-c2cnoc2)cc1Nc1ncc(Br)c(Nc2ccc3nccnc3c2P(C)(C)=O)n1 [compound 19],–,–,–
0.06,1.57,63.9,4.03,18.1,COc1cc(N(C)CCN(C)C)c(-c2cnn(C)c2)cc1Nc1ncc(Br)c(Nc2ccc3nccnc3c2P(C)(C)=O)n1 [compound 21],–,–,–
0.19,18.7,159,2.41,8.64,COc1cc(N2CCOCC2)c(-c2cnn(C)c2)cc1Nc1ncc(C(F)(F)F)c(Nc2ccc3nccnc3c2P(C)(C)=O)n1 [compound 25],–,–,–
0.13,15.4,362,4.73,13.7,COCCN(C)c1cc(OC)c(Nc2ncc(Br)c(Nc3ccc4nccnc4c3P(C)(C)=O)n2)cc1-c1cnn(C)c1 [compound 28],–,–,–
0.06,3.37,121,1.29,4.25,CN(C)c1c(-c2cnn(C)c2)cc(Nc2ncc(Br)c(Nc3ccc4nccnc4c3P(C)(C)=O)n2)c2c1CCO2 [compound 29],–,–,–
0.22,3.07,208,0.98,5.45,COc1cc(N(C)C)c(-c2cnn(C)c2)cc1Nc1ncc(Br)c(Nc2ccc3nccnc3c2P(C)(C)=O)n1 [compound 32],–,–,–
0.27,15.2,462,2.04,8.94,Cn1cc(-c2cc(Nc3ncc(Br)c(Nc4ccc5nccnc5c4P(C)(C)=O)n3)c(OCC(F)(F)F)nc2N2CCOCC2)cn1 [compound 34],–,–,–
